# In patent publication US12636260B2, “Application of α-asarone in preparation of medicine for preventing or treating hemorrhagic stroke” (CHENGDU XINRUI TAIKANG TECHNOLOGY CO., LTD., priority 2021, dated 2026):
# Key:
# mouse bone marrow cells = experiment: Mouse bone marrow micronucleus test by flow cytometry; type: in vivo; conditions: mice
# Method: Experimental grouping and administration: The animals were randomly divided into five groups with 10 […] in each group: blank control group (blank group, administrated blank emulsion with the same volume as the high-dose group of α-asarone), cyclophosphamide group (CTX group, 40 mg/kg), low dose of α-asarone emulsion injection group (prepared by preparation embodiment 7, 100 mg/kg/day, ASA-L group), medium dose of α-asarone emulsion injection group (prepared by preparation embodiment 7, 150 mg/kg/day, ASA-M group), and high dose of α-asarone emulsion injection group (prepared from preparation embodiment 7, 200 mg/kg/day, ASA-H group).
# All drugs were administrated through the tail vein for continuous 4 days except for the single injection of the positive control drug cyclophosphamide (CTX) 24 hours before sampling. After 24 hours of the last administration, the mice were sacrificed to separate both femurs. The femoral bone marrow cells were washed with PBS and filtered by 300 mesh nylon cell sieves to prepare a single-cell suspension. The suspension was centrifuged at 1650 rpm for 5 min, and the cell concentration was adjusted to 5×10^6 cells/mL by PBS resuspension. For each sample, 100 μL of the cell suspension was incubated with 400 μL of the PIPES-PI solution (10 mL of PIPES solution (concentration of 3.5 mg/mL)+0.5 mg PI+0.01 mL Triton X-100 (concentration of 0.1%)), gently blown and mixed, at 4° C. in the dark for 30 min and detected by a flow cytometry. […] The higher the value, the stronger the genotoxicity.
# ICH rats = experiment: Short-term neurological function of ICH rats (Garcia score, beam balance test); type: in vivo, rat; conditions: for Beam balance score / Garcia score: ICH model, 24 hours after modeling
# Method: (§1) Experimental grouping: At 2 h after endovascular perforation or collagenase VII injection, Zea Longa score was used to evaluate the neurological function of rats. Successful model rats were randomly divided into groups for administration.
# (§2) All groups were administrated through the tail vein injection except for group N administrated intraperitoneally.
# The rats were fasted for 12 hours before operation, and were anesthetized with 4% isoflurane, and kept anesthetized with 2% isoflurane. The animals were fixed in the prone position in a stereotaxic apparatus with the body temperature maintained at about 37° C. A traditional skin incision of the head was prepared along the midline. According to the stereotaxic atlas of the rat brain translated by Zhuge Qichao (George Paxinos, Charles Watson, Paxinos, Watson, & Zhuge Qichao. The Rat Brain in Stereotaxic Coordinates [M]. People's Medical Publishing House, 2005), the right caudate nucleus of the rat was determined as 0.0 mm anterior, 3.0 mm lateral to the bregma, and 5.5 mm ventral to the cortical surface. After labeling, we drilled an open window in the skull, and 1 μL of 0.5 U collagenase VII was slowly injected for 5 minutes with a microinjector. After the injection, the needle was stagnated for 8 minutes and slowly withdrawn. Then the scalp was sutured after the burr hole of skull was sealed with a sterile bone wax, and the rats were returned to the cage for normal feeding. The sham group conducted the same procedure as the model group, but received an equal volume of physiological saline into the caudate nucleus.
# (§3) According to Zea Longa's neurological function score, the rats were scored 2 hours after the operation when they were awake from anesthesia. Successful model rats with a score of 1 to 3 points were enrolled in the group: • 0 points: no neurological deficits with normal activity; • 1 point: inability to fully extend the contralateral forepaw; • 2 points: the animal appears to turn in circles when crawling; • 3 points: the animal tends to lean to the hemiplegic side; • 4 points: the animal cannot walk spontaneously or loses consciousness. 1.4 Assessment of Short-Term Neurological Function
# (§4) The neurological function of rats was comprehensively evaluated with Garcia score and beam balance test 24 hours after modeling. The criteria of Garcia score are shown in Table 1, which evaluates the movement, sensation, climbing and limb symmetry of the rats with the score range of 3 to 18 points. The lower the score, the more severe the neurological injury. The criteria of the beam balance test are shown in Table 2, which evaluated the proprioception and body coordination of rats with the score range of 0 to 6 points. The higher the score, the more severe the neurological injury. Scoring was done independently by a technician blinded to the modeling and drug administration.
# SAH rats [1] = experiment: Long-term survival rate of SAH rats; type: in vivo, rat; conditions: nimodipine injection 1 mg/kg intraperitoneally, 2 hours after modeling then once a day for 14 days
# Method: The experimental materials, grouping and modeling methods were the same as those in effect embodiment 1. The rats were immediately administrated 2 hours after SAH modeling according to the grouping administration protocol and continued to be administrated once a day for 14 days thereafter, and the survival of the rats was observed and recorded for 14 days. The mortality rate within 24 hours in group S was as high as 53.8%.
# SAH rats [2] = experiment: Secondary epilepsy in SAH rats (Racine score, seizures); type: in vivo, rat; conditions: within 24 hours after SAH, group N, nimodipine injection 1 mg/kg intraperitoneally
# Method: The experimental materials, grouping, modeling method and administration protocol were the same as those in the effect embodiment 1, and the seizures of rats in each group were observed within 24 hours after SAH.
# SAH rats [3] = experiment: Short-term neurological function of SAH rats (Garcia score, beam balance test, bleeding score); type: in vivo, rat; conditions: for Beam balance score / Garcia score: SAH model, 24 hours after modeling
# Method: as §1, §2
# The rats were fasted for 12 hours before operation, and were anesthetized with 4% isoflurane, and kept anesthetized with 2% isoflurane. The animals were fixed in the supine position with the body temperature maintained at about 37° C. A traditional skin incision of the neck was performed along the midline. The muscle and fascia were separated along the medial margin of the sternocleidomastoid muscle to expose the right side, then the common carotid artery (CCA), external carotid artery (ECA) and internal carotid artery (ICA) were bluntly separated with disposal lines placed at CCA proximal end, ICA and ECA for use. The CCA proximal end and the ECA were ligated, and the ICA was temporarily clamped with an arterial clip, and then a small hole was poked with a needle at about 4 mm from the bifurcation at the CCA. A nylon suture was introduced into the CCA from the hole and advanced through the ICA after releasing the arterial clip, and the suture was inserted intracranially. […] The suture moved forward for roughly 2 mm to perforate the artery followed by instant withdraw, and then the suture was completely removed and the ICA was ligated. Finally, the incision was cleaned with normal saline and sutured. The sham group conducted the same procedure as the model group except for the perforation. After awakening from anesthesia, the animals were raised normally.
# The SAH severity was grading after rat's euthanasia, i.e., completing the evaluation of short-term neurological function. The score was determined by the amount of subarachnoid hemorrhage on the surface of basal cistern and brain tissue which was divided into six parts by the Willis ring composed of basilar artery, anterior cerebral artery, internal carotid artery, posterior cerebral artery and posterior communicating artery. Each part was graded from 0 to 3 points according to the amount of subarachnoid blood clots, i.e., 0 points: no subarachnoid blood; 1 point: a small amount of subarachnoid blood; 2 points: moderate amount of blood clots with recognizable arteries; 3 points: blood clots cover all arteries in the area. All 6 part scores were added up for a total of 18 points. According to the final score, SAH hemorrhage severity could be divided into mild subarachnoid hemorrhage (0 to 7 points), moderate subarachnoid hemorrhage (8 to 12 points), and severe subarachnoid hemorrhage (13 to 18 points). The moderate to severe SAH models were selected for statistical analysis (score≥8 points).
# as §3
# as §4, with “The higher the score, the more severe the neurological injury. Scoring was done independently by a technician blinded to the modeling and drug administration.” left out
# [4] = CTX group, 40 mg/kg, single injection 24 hours before sampling
# [5] = group N, nimodipine injection 1 mg/kg intraperitoneally
# [6] = group V, vinpocetine injection 2 mg/kg tail vein
# [7] = group B, β-asarone emulsion injection 20 mg/kg tail vein
smiles,measurement,setting,value
"O=P1(N(CCCl)CCCl)NCCCO1 (centres unmarked) [CTX, cyclophosphamide, reference compound]",MNPCE,mouse bone marrow cells; [4],0.86 ± 0.25
same,PCE,mouse bone marrow cells; [4],36.46 ± 8.01
same,fMNPCE (‰),mouse bone marrow cells; [4],24.36 ± 8.03 ‰
same,micronucleus rate compared to the blank emulsion group,mouse bone marrow cells; cyclophosphamide 40 mg/kg (P<0.01),significantly higher
"COCCOC(=O)C1=C(C)NC(C)=C(C(=O)OC(C)C)C1c1cccc([N+](=O)[O-])c1 (centres unmarked) [nimodipine, reference compound]",Beam balance score,ICH rats; [5],3.89
same,Garcia score,ICH rats; [5],8.92
same,Survival rate,"SAH rats [1]; Day 14, group N",58.3%
same,24-hour mortality rate,SAH rats [1]; group N,25.0%
same,Clonic seizures (%),SAH rats [2],18.8%
same,Racine score,SAH rats [2],0.81 ± 1.56
same,Tonic seizures (%),SAH rats [2],6.2%
same,Beam balance score,SAH rats [3]; [5],3.01
same,Garcia score,SAH rats [3]; [5],11.33
"CCOC(=O)C1=C[C@]2(CC)CCCN3CCc4c(n1c1ccccc41)[C@@H]32 [vinpocetine, reference compound]",Beam balance score,ICH rats; [6],3.27
same,Garcia score,ICH rats; [6],10.56
same,Beam balance score,SAH rats [3]; [6],3.54
same,Garcia score,SAH rats [3]; [6],10.30
"C/C=C\c1cc(OC)c(OC)cc1OC [β-asarone, reference compound]",effect against the neurological impairment,"ICH rats; ICH model rats, group B, β-asarone emulsion injection 20 mg/kg",no obvious effect
same,Beam balance score,ICH rats; [7],3.76
same,Garcia score,ICH rats; [7],9.12
same,effect against the neurological impairment,"SAH rats [3]; SAH model rats, group B, β-asarone emulsion injection 20 mg/kg",no obvious effect
same,Beam balance score,SAH rats [3]; [7],3.70
same,Garcia score,SAH rats [3]; [7],10.51
